The text below walks through data of US20050137220A1 (Pharmacia Corporation, priority 2003, published 2005).

Values joined by “and” are separate entries in the source; they are usually repeats but may differ in a detail not shown here. Equal values may be shown once. Where a name gives a salt, the structure may show the parent alone.

This experiment has as its target MK-2 (Homo sapiens, UniProt P49137). The experiment is described as follows: Determination of MK-2 IC50 (phosphorylation of HSP-peptide, anion exchange resin capture assay). It is filed as biochemical. The conditions noted are these: additional values are replicate IC50 experiments; mixture of stereoisomers implied unless otherwise noted; read-out: MK-2 Avg. IC50.

MK-2, sequence (P49137 whole entry, species assumed): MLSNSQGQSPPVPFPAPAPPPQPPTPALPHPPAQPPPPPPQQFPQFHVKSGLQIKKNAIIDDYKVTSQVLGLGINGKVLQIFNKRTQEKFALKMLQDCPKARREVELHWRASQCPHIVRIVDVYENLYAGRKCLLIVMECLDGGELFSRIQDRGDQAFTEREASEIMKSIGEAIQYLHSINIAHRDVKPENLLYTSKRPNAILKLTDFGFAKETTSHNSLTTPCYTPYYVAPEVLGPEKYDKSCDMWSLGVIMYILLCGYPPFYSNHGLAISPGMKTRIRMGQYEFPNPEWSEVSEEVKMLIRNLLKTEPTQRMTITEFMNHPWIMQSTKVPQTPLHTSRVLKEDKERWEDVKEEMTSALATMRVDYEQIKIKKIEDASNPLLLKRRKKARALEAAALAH

Consider `O=C(O)C1NCCc2c1[nH]c1ccc(OCc3ccccc3Cl)cc21` (stereo not drawn) [Example 196, 6-[(2-chlorobenzyl)oxy]-2,3,4,9-tetrahydro-1H-beta-carboline-1-carboxylic acid hydrochloride], for which the IC50 was more than 200 µM. Under `COC(=O)CC1NCCc2c1[nH]c1ccc(OC)cc21` (stereo not drawn) [Example 167, methyl(6-methoxy-2,3,4,9-tetrahydro-1H-beta-carbolin-1-yl)acetate] stands more than 200 µM; under `O=C(O)C1NCCc2c1[nH]c1cc(F)ccc21` (stereo not drawn) [Example 214, 7-fluoro-2,3,4,9-tetrahydro-1H-beta-carboline-1-carboxylic acid hydrochloride], more than 200 µM; under `COC(=O)[C@@H]1Cc2c([nH]c3ccccc23)C(C)(C(=O)O)N1` (mixture of isomers) [Example 228, 3-(methoxycarbonyl)-1-methyl-2,3,4,9-tetrahydro-1H-beta-carboline-1-carboxylic acid], more than 200 µM. To `COc1cc2[nH]c3c(c2cc1OC)CCCC3=NO` [Example 131, 6,7-dimethoxy-2,3,4,9-tetrahydro-1H-carbazol-1-one oxime] belongs 100 µM; to `O=C(O)C1NCCc2c1[nH]c1c(OCc3ccccc3)cccc21` (stereo not drawn) [Example 194, 8-(benzyloxy)-2,3,4,9-tetrahydro-1H-beta-carboline-1-carboxylic acid], more than 200 µM; to `COc1ccc([N+](=O)[O-])c2c3c(n(C)c12)C(=O)NCC3` [Example 259, 8-methoxy-9-methyl-5-nitro-2,3,4,9-tetrahydro-1H-beta-carbolin-1-one], more than 200 µM. To `O=C(O)C1NCCc2c1[nH]c1ccc(OCc3cccnc3)cc21` (stereo not drawn) [Example 102, 6-(pyridin-3-ylmethoxy)-2,3,4,9-tetrahydro-1H-beta-carboline-1-carboxylic acid hydrochloride] belongs 42.6 µM; to `COc1ccc2[nH]c3c(c2c1)CCNC3(C)C(=O)O` (stereo not drawn) [Example 237, 6-methoxy-1-methyl-2,3,4,9-tetrahydro-1H-beta-carboline-1-carboxylic acid hydrochloride], more than 200 µM; to `O=C(O)C1NCCc2c1[nH]c1ccc(OCc3ccc(C(F)(F)F)cc3)cc21` (stereo not drawn) [Example 138, 6-{[4-(trifluoromethyl)benzyl]oxy}-2,3,4,9-tetrahydro-1H-beta-carboline-1-carboxylic acid hydrochloride hydrate], 115 µM.

In the case of `COc1ccc2[nH]c3c(c2c1C)CCNC3C(=O)O` (stereo not drawn) [Example 183, 6-methoxy-5-methyl-2,3,4,9-tetrahydro-1H-beta-carboline-1-carboxylic acid hydrochloride], the IC50 is more than 200 µM. To `COC(=O)C1c2[nH]c3ccc(O)cc3c2CCN1C` (stereo not drawn) [Example 174, methyl 6-hydroxy-2-methyl-2,3,4,9-tetrahydro-1H-beta-carboline-1-carboxylate] belongs more than 200 µM; to `COc1ccc2[nH]c3c(c2c1)C1CCCCC1NC3C(=O)O` (stereo not shown) [Example 191, 10-methoxy-2,3,4,4a,5,6,7,11c-octahydro-1H-indolo[2,3-c]quinoline-6-carboxylic acid], more than 200 µM. Under `O=C1NCCc2c1[nH]c1ccc(I)cc21` [Example 120, 6-iodo-2,3,4,9-tetrahydro-1H-beta-carbolin-1-one] stands 75.2 µM; under `CCOc1cc([N+](=O)[O-])c2[nH]c3c(c2c1)CCNC3=O` [Example 255, 6-ethoxy-8-nitro-2,3,4,9-tetrahydro-1H-beta-carbolin-1-one], more than 200 µM; under `COc1ccc2[nH]c3c(c2c1)CCNC3C(F)(F)F` (stereo not drawn) [Example 224, 6-methoxy-1-(trifluoromethyl)-2,3,4,9-tetrahydro-1H-beta-carboline], more than 200 µM. To `O=C1NCCc2c1[nH]c1cccc(C(=O)N3CCNCC3)c21` [Example 268, 5-(piperazin-1-ylcarbonyl)-2,3,4,9-tetrahydro-1H-beta-carbolin-1-one hydrochloride] belongs more than 200 µM; to `O=C1NCCc2c1[nH]c1cccc(C(=O)O)c21` [Example 250, 1-oxo-2,3,4,9-tetrahydro-1H-beta-carboline-5-carboxylic acid], more than 200 µM. In the case of `O=C1NCCc2c1[nH]c1ccc(C#Cc3ccccc3)cc21` [Example 248, 6-(phenylethynyl)-2,3,4,9-tetrahydro-1H-beta-carbolin-1-one], the IC50 is more than 200 µM. Turning to `COc1ccc2[nH]c3c(c2c1)CCNC3(CC(=O)O)C(=O)O` (stereo not drawn) [Example 226, 1-(carboxymethyl)-6-methoxy-2,3,4,9-tetrahydro-1H-beta-carboline-1-carboxylic acid], the IC50 was more than 200 µM. To `COc1ccc2[nH]c3c(c2c1)CCNC3CC(=O)O` (stereo not drawn) [Example 165, (6-methoxy-2,3,4,9-tetrahydro-1H-beta-carbolin-1-yl)acetic acid hydrochloride] belongs more than 200 µM. Under `COC(=O)C1(C)NCCc2c1[nH]c1ccccc21` (stereo not shown) [Example 212, 1h-Pyrido[3,4-B]Indole-1-Carboxylic Acid, 2,3,4,9-Tetrahydro-1-Methyl-,Methyl Ester] stands more than 200 µM; under `COc1ccc2[nH]c3c(c2c1)CCNC3CN` (stereo not drawn) [Example 230, 1-(6-methoxy-2,3,4,9-tetrahydro-1H-beta-carbolin-1-yl)methanamine trifluoroacetate hydrate], more than 200 µM; under `O=C(O)C1(Cc2ccc3c(c2)OCO3)NCCc2c1[nH]c1ccccc21` (stereo not drawn) [Example 204, 1-[(benzodioxolan-5-yl)methyl]-2,3,4,9-tetrahydro-1H-beta-carboline-1-carboxylic acid], more than 200 µM. For `COC(=O)C1c2c(c3cc(OC)ccc3n2CO)CCN1C` (stereo not drawn) [Example 169, methyl 9-(hydroxymethyl)-6-methoxy-2-methyl-2,3,4,9-tetrahydro-1H-beta-carboline-1-carboxylate], the IC50 was more than 200 µM.

`CCOC(=O)c1cccc2c3c([nH]c12)CCNC3=O` [Example 96, ethyl 1-oxo-2,3,4,5-tetrahydro-1H-pyrido[4,3-b]indole-6-carboxylate]: the concentration for half-maximal inhibition (IC50) worked out at 34.5 µM.

For `COC(=O)CC1CC2(C(=O)OC)c3[nH]c4ccccc4c3CCN2C1=O` (stereo not shown) [Example 213, 1h-Indolizino[8,7-B]Indole-2-Acetic Acid, 2,3,5,6,11,11b-(Methoxycarbonyl)-3-Oxo-, Methyl Ester], the concentration for half-maximal inhibition (IC50) was more than 200 µM. `COc1ccc2[nH]c3c(c2c1)C(Cc1ccco1)CNC3C(=O)O` (stereo not drawn) [Example 222, 4-(2-furylmethyl)-6-methoxy-2,3,4,9-tetrahydro-1H-beta-carboline-1-carboxylic acid trifluoroacetate]: the IC50 is more than 200 µM. Under `COc1ccc2c(c1)c1c(n2C)C(C(=O)O)NCC1` (stereo not drawn) [Example 182, 6-methoxy-9-methyl-2,3,4,9-tetrahydro-1H-beta-carboline-1-carboxylic acid] stands more than 200 µM; under `COc1ccc2[nH]c3c(c2c1)CCN1CCNC(=O)C31` (stereo not shown) [Example 192, 9-methoxy-3,4,6,7,12,12b-hexahydropyrazino[1′,2′:1,2]pyrido[3,4-b]indol-1(2H)-one], more than 200 µM. Under `COc1ccc2[nH]c3c(c2c1)CCN1C(=O)NC(=O)C31` (stereo not shown) [Example 158, 8-methoxy-5,6,11,11b-tetrahydro-1H-imidazo[1′,5′:1,2]pyrido[3,4-b]indole-1,3(2H)-dione] stands 175 µM; under `COC(=O)c1ccc(COc2ccc3[nH]c4c(c3c2)CCNC4C(=O)O)cc1` (stereo not drawn) [Example 119, 6-{[4-(methoxycarbonyl)benzyl]oxy}-2,3,4,9-tetrahydro-1H-beta-carboline-1-carboxylic acid hydrochloride], 71.9 µM; under `O=C(O)C1NCCc2c1[nH]c1ccc(OCc3ccccn3)cc21` (stereo not drawn) [Example 101, 6-(pyridin-2-ylmethoxy)-2,3,4,9-tetrahydro-1H-beta-carboline-1-carboxylic acid hydrochloride], 39.9 µM. Under `CCOC(=O)c1ccc2c3c([nH]c2c1)CCNC3=O` [Example 110, ethyl 1-oxo-2,3,4,5-tetrahydro-1H-pyrido[4,3-b]indole-7-carboxylate] stands 50.1 µM; under `NNC(=O)c1ccc2[nH]c3c(c2c1)CCNC3C(=O)O` (stereo not drawn) [Example 107, 6-(hydrazinocarbonyl)-2,3,4,9-tetrahydro-1H-beta-carboline-1-carboxylic acid], 48.6 µM. As for `O=C(O)c1ccc2[nH]c3c(c2c1)CCNC3=O` [Example 271, 1-oxo-2,3,4,9-tetrahydro-1H-beta-carboline-6-carboxylic acid], the IC50 is more than 200 µM. To `COc1ccc2[nH]c3c(c2c1)CC(C(F)(F)F)NC3C(=O)O` (stereo not drawn) [Example 205, 6-methoxy-3-(trifluoromethyl)-2,3,4,9-tetrahydro-1H-beta-carboline-1-carboxylic acid] belongs more than 200 µM. To `C=CCN1CCc2c([nH]c3ccc(OC)cc23)C1C(=O)O` (stereo not drawn) [Example 128, potassium 2-allyl-6-methoxy-2,3,4,9-tetrahydro-1H-beta-carboline-1-carboxylate] belongs 95.1 µM and 98.2 µM; to `CC(C)(C)OC(=O)N1CCN(C(=O)c2cccc3[nH]c4c(c23)CCNC4=O)CC1` [Example 267, tert-butyl 4-[(1-oxo-2,3,4,9-tetrahydro-1H-beta-carbolin-5-yl)carbonyl]piperazine-1-carboxylate], more than 200 µM; to `COC(=O)C1c2[nH]c3ccc(OC)cc3c2CCN1C(=O)C(F)(F)F` (stereo not drawn) [Example 207, methyl 6-methoxy-2-(trifluoroacetyl)-2,3,4,9-tetrahydro-1H-beta-carboline-1-carboxylate], more than 200 µM. To `CCOC(=O)C1(C(=O)OCC)NCCc2c1[nH]c1ccc(OC)cc21` [Example 171, diethyl 6-methoxy-2,3,4,9-tetrahydro-1H-beta-carboline-1,1-dicarboxylate] belongs more than 200 µM; to `COc1ccc2[nH]c3c(c2c1)CCNC3C(N)=O` (stereo not drawn) [Example 220, 6-methoxy-2,3,4,9-tetrahydro-1H-beta-carboline-1-carboxamide], more than 200 µM. For `COC(=O)C1(C)NCCc2c1[nH]c1ccccc21` (stereo not drawn) [Example 235, methyl 1-methyl-2,3,4,9-tetrahydro-1H-beta-carboline-1-carboxylate], the IC50 was more than 200 µM.

By IC50 is commonly meant the concentration that inhibits the measured activity by half.
